In ChEMBL document CHEMBL3797034, “Design, synthesis and evaluation of novel tacrine-multialkoxybenzene hybrids as multi-targeted compounds against Alzheimer's disease” (Eur J Med Chem, 2016):
The source made the active and inactive calls. No cut-off for these calls is given here.

How the values were obtained:
[1] = molecular target: Amyloid-beta precursor protein (Homo sapiens, UniProt P05067)
Description: Inhibition of self-mediated amyloid beta (1 to 42) (unknown origin) aggregation after 24 hrs by thioflavin T fluorescence assay

Cholinesterase = Cholinesterase (Equus caballus, UniProt P81908)
Description: Inhibition of equine serum BuChE using butylthiocholine chloride as substrate preincubated for 20 mins followed by substrate addition by Ellman's method

Acetylcholinesterase = Acetylcholinesterase (Electrophorus electricus, UniProt O42275)
Description: Inhibition of electric eel AChE using acetylthiocholine chloride as substrate preincubated for 20 mins followed by substrate addition by Ellman's method

[2] = molecular target: Acetylcholinesterase (Electrophorus electricus) (UniProt O42275); test: Mixed inhibition of electric eel AChE using acetylthiocholine chloride as substrate preincubated for 20 mins followed by substrate addition by Lineweaver-burk plot analysis
[3] = molecular target: Acetylcholinesterase (Electrophorus electricus) (UniProt O42275); test: Reversible inhibition of electric eel AChE using acetylthiocholine chloride as substrate preincubated for 20 mins followed by substrate addition by Lineweaver-burk plot analysis

Chain of Cholinesterase (P81908 whole entry): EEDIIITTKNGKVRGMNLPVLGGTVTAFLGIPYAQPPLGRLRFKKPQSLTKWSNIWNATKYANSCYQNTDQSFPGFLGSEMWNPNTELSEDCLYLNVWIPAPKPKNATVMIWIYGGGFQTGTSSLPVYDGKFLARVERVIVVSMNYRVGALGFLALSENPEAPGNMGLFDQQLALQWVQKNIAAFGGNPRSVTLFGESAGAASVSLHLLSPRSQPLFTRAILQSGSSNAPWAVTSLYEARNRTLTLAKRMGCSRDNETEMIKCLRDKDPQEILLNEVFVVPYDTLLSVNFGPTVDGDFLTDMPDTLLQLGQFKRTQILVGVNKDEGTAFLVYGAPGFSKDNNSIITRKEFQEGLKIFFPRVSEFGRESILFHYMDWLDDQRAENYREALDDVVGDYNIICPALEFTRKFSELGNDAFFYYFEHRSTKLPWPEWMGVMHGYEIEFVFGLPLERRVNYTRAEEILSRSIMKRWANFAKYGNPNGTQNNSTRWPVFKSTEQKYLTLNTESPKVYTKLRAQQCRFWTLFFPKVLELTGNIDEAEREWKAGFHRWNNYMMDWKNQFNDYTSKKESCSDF
Chain of Amyloid-beta precursor protein (P05067 whole entry): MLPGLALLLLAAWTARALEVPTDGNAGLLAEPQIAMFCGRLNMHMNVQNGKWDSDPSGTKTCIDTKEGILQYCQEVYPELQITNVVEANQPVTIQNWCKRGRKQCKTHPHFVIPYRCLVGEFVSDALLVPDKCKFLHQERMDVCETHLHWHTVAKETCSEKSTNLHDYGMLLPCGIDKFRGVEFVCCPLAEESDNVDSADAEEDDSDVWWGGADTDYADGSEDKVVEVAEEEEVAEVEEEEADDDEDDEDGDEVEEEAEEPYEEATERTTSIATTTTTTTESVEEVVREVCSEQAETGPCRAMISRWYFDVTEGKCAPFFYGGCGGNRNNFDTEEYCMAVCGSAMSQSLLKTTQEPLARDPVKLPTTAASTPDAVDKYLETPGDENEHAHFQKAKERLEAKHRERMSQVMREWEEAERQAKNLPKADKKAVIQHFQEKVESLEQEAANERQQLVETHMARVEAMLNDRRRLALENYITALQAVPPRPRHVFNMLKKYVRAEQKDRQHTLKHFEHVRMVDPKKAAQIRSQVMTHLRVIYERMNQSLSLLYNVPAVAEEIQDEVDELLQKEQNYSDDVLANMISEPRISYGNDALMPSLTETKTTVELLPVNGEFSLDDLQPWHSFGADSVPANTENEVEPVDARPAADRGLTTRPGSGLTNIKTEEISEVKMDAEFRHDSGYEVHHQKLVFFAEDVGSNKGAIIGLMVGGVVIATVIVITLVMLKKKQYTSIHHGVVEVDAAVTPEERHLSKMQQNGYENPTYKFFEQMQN
Chain of Acetylcholinesterase (O42275 whole entry): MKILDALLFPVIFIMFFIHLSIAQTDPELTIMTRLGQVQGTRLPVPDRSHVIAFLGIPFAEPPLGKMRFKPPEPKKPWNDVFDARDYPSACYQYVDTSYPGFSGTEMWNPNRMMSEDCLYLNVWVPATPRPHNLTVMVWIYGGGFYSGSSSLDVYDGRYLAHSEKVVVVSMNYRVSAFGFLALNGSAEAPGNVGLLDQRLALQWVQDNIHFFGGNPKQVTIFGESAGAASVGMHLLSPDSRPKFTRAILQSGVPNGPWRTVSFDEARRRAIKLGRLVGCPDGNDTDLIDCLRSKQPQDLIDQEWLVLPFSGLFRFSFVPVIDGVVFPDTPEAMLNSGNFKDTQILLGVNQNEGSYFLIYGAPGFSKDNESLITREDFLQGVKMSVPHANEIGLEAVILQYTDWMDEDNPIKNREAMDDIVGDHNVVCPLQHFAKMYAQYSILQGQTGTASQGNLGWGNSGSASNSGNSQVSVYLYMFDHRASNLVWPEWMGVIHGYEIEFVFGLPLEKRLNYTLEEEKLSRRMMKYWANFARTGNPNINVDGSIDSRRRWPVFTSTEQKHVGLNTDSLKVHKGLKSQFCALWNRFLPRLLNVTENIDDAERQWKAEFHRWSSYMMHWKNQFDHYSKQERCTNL
Chain of Acetylcholinesterase (Electrophorus electricus) (O42275 24-633 limits assumed): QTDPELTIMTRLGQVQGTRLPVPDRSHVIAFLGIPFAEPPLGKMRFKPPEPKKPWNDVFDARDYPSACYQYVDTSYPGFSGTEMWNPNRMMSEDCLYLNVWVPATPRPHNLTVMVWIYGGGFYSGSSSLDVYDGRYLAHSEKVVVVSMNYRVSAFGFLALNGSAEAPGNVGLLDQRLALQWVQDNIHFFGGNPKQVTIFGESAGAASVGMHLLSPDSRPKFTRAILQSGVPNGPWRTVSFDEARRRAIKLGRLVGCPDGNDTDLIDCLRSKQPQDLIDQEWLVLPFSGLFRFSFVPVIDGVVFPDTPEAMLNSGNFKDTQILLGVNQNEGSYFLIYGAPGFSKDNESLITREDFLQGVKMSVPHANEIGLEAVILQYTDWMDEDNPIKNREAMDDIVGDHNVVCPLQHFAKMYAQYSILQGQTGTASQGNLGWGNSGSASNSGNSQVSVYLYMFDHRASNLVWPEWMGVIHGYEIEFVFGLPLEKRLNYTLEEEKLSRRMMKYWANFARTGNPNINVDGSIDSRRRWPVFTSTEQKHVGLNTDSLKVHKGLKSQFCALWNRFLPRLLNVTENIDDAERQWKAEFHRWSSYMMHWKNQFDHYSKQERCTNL

SMILES | IC50 [1] [nM] | IC50 (Cholinesterase) [nM] | IC50 (Acetylcholinesterase) [nM] | inhibition [2] | inhibition [3]
COc1ccc(/C=C/C(=O)OCC(=O)Nc2c3c(nc4ccccc24)CCCC3)cc1O | 46.1 | 355 | 74.9 | – | –
COc1cc(C(=O)OCC(=O)Nc2c3c(nc4ccccc24)CCCC3)ccc1O | 37.4 | 319 | 70.1 | – | –
O=C(COC(=O)Cc1ccc(O)cc1)Nc1c2c(nc3ccccc13)CCCC2 | 45.3 | 239 | 74 | – | –
COc1ccc(C(=O)OCC(=O)Nc2c3c(nc4ccccc24)CCCC3)c(OC)c1OC | 65.5 | 255 | 15.5 | – | –
O=C(COC(=O)Cc1ccc(Cl)cc1)Nc1c2c(nc3ccccc13)CCCC2 | 77.5 | 218 | 183 | – | –
COc1cc(C(=O)OCC(=O)Nc2c3c(nc4ccccc24)CCCC3)cc(OC)c1OC | 30.7 | 329 | 8.46 | – | –
O=C(COC(=O)Cc1c[nH]c2ccccc12)Nc1c2c(nc3ccccc13)CCCC2 | 39 | 292 | 8.13 | – | –
COc1cc(/C=C/C(=O)OCC(=O)Nc2c3c(nc4ccccc24)CCCC3)cc(OC)c1OC | 45.9 | 299 | 16.9 | – | –
COc1cc(OC)cc(C(=O)OCC(=O)Nc2c3c(nc4ccccc24)CCCC3)c1 | 55.9 | 224 | 15.7 | – | –
COc1ccc(CC(=O)OCC(=O)Nc2c3c(nc4ccccc24)CCCC3)c(OC)c1OC | 51.8 | 364 | 5.63 | Active | Active
COc1ccc(CC(=O)OCC(=O)Nc2c3c(nc4ccccc24)CCCC3)cc1 | 71.3 | 319 | 25.3 | – | –
COc1ccc(CC(=O)OCC(=O)Nc2c3c(nc4ccccc24)CCCC3)cc1OC | 22.5 | 554 | 65.1 | – | –
O=C(COC(=O)c1ccc(O)c(O)c1)Nc1c2c(nc3ccccc13)CCCC2 | 17.4 | 344 | 133 | – | –
O=C(COC(=O)/C=C/c1ccc(Cl)cc1)Nc1c2c(nc3ccccc13)CCCC2 | 51.8 | 542 | 213 | – | –
COc1ccc(/C=C/C(=O)OCC(=O)Nc2c3c(nc4ccccc24)CCCC3)cc1OC | 49.1 | 159 | 16.2 | – | –
